We go through 23 molecules from patent publication US20130115671A1, “ENZYMES FROM CONIDIOBOLUS BREFELDIANUS AND PROCESS FOR PREPARATION THEREOF” (Council of Scientific and Industrial Research, priority 2010, published 2013).

In series [1] the test system is protease from Conidiobolus brefeldianus MTCC 5185. Briefly: Stability of protease in presence of organic solvents at 37° C. In kind it is physicochemical. Particulars: 20% (v/v) solvent; for Residual Activity (%) of protease, 30 min: pH 7, 30 min; for Residual Activity (%) of protease, 60 min: pH 7, 60 min; for Residual Activity (%) of protease, 120 min: pH 7, 120 min; for Residual Activity (%) of protease, 240 min: pH 7, 240 min; for Residual Activity (%) of protease, 0: crude protease, pH 7, 0 min. As to the method: This example illustrates the effect of water miscible as well as water immiscible organic solvents on stability of crude protease at 37° C. […] Samples were removed at different time intervals and residual activity was estimated. Sample without organic solvent served as control.

For series [2] the test system is unchanged. Briefly: Stability of protease in presence of organic solvents at 28° C. In kind it is physicochemical. Further details: key to residual activity of protease, 0 h / residual activity of protease, 12 h: % of initial activity with respective solvent (initial = 100%). Conditions: crude protease, 20% (v/v) solvent. As to the method: This example illustrates the effect of water miscible as well as water immiscible organic solvents on stability of crude protease at 28° C. […] Samples were removed at different time intervals and residual activity was estimated. Sample without organic solvent served as control. Initial activity with respective solvents was taken as 100% (Table 17). […] (Table 17).

Series [3] concerns protease secreted by Conidiobolus brefeldianus MTCC 5185. Briefly: Effect of metals on protease activity. In kind it is biochemical.
In series [4] the test system is protease from Conidiobolus brefeldianus MTCC 5185. As to the method:
This example illustrates the stability of the protease in presence of salts. […] Aliquots were removed at regular intervals of 30 min and residual activity was estimated at 50° C., pH 9.

Series [5] shares this test system. Briefly: Stability of protease at 50° C. in presence of sugar alcohols. In kind it is physicochemical. The arrangement: unit not given here. As to the method: Ultrafiltered protease as described in example 27 was incubated at 50° C. in presence of glycerol, mannitol, sorbitol and xylitol at 20% concentration up to 3 h. Aliquots were removed at regular intervals of 30 min and residual activity was estimated at 50° C., pH 9.

For series [6] the test system is unchanged. Briefly: Stability of protease at 50° C. in presence of trehalose and sorbitol. It is filed as physicochemical. Further details: unit not given here. The source says:
Stability increased with increasing concentration of trehalose and sorbitol.

The mark [7] stands for this setting: 10 mM CaCl2, 0.5M NaCl, 0.5M glycine or 15% (NH4)2SO4, 0 min.
Setting [8] is: salt concentration as in column head, 30 min.
[9] abbreviates: salt concentration as in column head, 60 min.
Where [10] appears, read: salt concentration as in column head, 90 min.
[11] abbreviates: salt concentration as in column head, 120 min.
The mark [12] stands for this setting: salt concentration as in column head, 180 min.
The mark [13] stands for this setting: metal 5 mM in assay mixture, crude protease.
[14] abbreviates: ultrafiltered protease with 20% sugar alcohol, 0 min.

Values joined by “and” are separate entries in the source; they are usually repeats but may differ in a detail not shown here. Equal values may be shown once. Read-outs that look alike come from different tables or passages of the source.

As to `CC(C)=O` [Acetone, acetone], in series [1], the “Residual Activity (%) of protease, 30 min” value turned out to be 91.66%; the “Residual Activity (%) of protease, 60 min” value worked out at 81.10%; the “Residual Activity (%) of protease, 120 min” value stood at 60.57%; the “Residual Activity (%) of protease, 240 min” value is reported as 29.53%. The “Residual Activity (%) of protease, 0” value in series [1] came out at 100%. Further, in series [2], the “residual activity of protease, 0 h” value came out at 100; the “residual activity of protease, 5 h” value is recorded as 95.66; the “residual activity of protease, 12 h” value is given as 55.51.
For `CC#N` [Acetonitrile, acetonitrile], in series [1], the “Residual Activity (%) of protease, 30 min” value is listed as 37.19%; the “Residual Activity (%) of protease, 60 min” value came to 36.40%; the “Residual Activity (%) of protease, 120 min” value is 17.52%; the “Residual Activity (%) of protease, 240 min” value is listed as 13.45%. Besides, the “Residual Activity (%) of protease, 0” value in series [1] stood at 100%. In series [2], the “residual activity of protease, 0 h” value is given as 100; the “residual activity of protease, 5 h” value came to 98.31; the “residual activity of protease, 12 h” value was determined as 49.90.
With `[Ca+2].[Cl-].[Cl-]` [CaCl2, Calcium chloride], the “Relative Activity (%) of protease” value in series [3] is 118.25%. In addition, the “effect on protease activity” value in series [3] is “active”. Moreover, the “Residual Activity (%) of protease at 50° C.” value is 100.00% in series [4] (setting [7]); 91.70% in series [4] (setting [8]); 83.17% in series [4] (setting [9]); 70.83% in series [4] (setting [10]); 63.83% in series [4] (setting [11]); 54.65% in series [4] (setting [12]). For the same molecule, the “Residual Activity (%) of protease at 50° C.” value in series [4] (salt concentration as in column head, 180 min, listed as Calcium chloride) is reported as “around 55%”.
`[Cl][Cd][Cl]` [CdCl2]: in series [3] (metal 5 mM), the “effect on protease activity” value is listed as “active”. For the same molecule, the “Relative Activity (%) of protease” value in series [3] (setting [13]) is given as 114.30%.
In the case of `[Cl-].[Cl-].[Co+2]` [CoCl2], in series [3], the “Relative Activity (%) of protease” value is on record as 118.71% and the “effect on protease activity” value is on record as “active”.
On to `[Cl][Cu][Cl]` [CuCl2], for which the “Relative Activity (%) of protease” value in series [3] (setting [13]) came out at 12.78%.
For the molecule `[Cl][Hg][Cl]` [HgCl2], the “effect on protease activity” value in series [3] (metal 5 mM) was “totally inhibited”. Also, the “Relative Activity (%) of protease” value in series [3] (setting [13]) is listed as 3.27%.
Turning to `CC(C)O` [Isopropanol, isopropanol], in series [1], the “Residual Activity (%) of protease, 30 min” value was determined as 46.06%; the “Residual Activity (%) of protease, 60 min” value is given as 34.35%; the “Residual Activity (%) of protease, 120 min” value stood at 18.73%; the “Residual Activity (%) of protease, 240 min” value stood at 17.11%. In series [1], the “Residual Activity (%) of protease, 0” value is listed as 100%. Further, in series [2], the “residual activity of protease, 0 h” value is reported as 100; the “residual activity of protease, 5 h” value worked out at 100.29; the “residual activity of protease, 12 h” value amounted to 57.79.
Turning to `[Cl-].[K+]` [KCl], in series [3] (metal 5 mM), the “effect on protease activity” value was “active”. Also, the “Relative Activity (%) of protease” value in series [3] (setting [13]) was 158.50%.
Take `OC[C@@H](O)[C@@H](O)[C@H](O)[C@H](O)CO` [Mannitol, mannitol]: the “residual activity of protease at 50° C.” value in series [5] (20% sugar alcohol, 30 min) was 74.06; in series [5] (20% sugar alcohol, 60 min), 64.42; in series [5] (20% sugar alcohol, 90 min), 58.13; in series [5] (20% sugar alcohol, 120 min) it was 48.66; in series [5] (20% sugar alcohol, 180 min), 40.71; in series [5] (setting [14]), 100.
For `[Cl-].[Cl-].[Mg+2]` [MgCl2], the “Relative Activity (%) of protease” value in series [3] (setting [13]) turned out to be 132.24%.
`O=S(=O)([O-])[O-].[Mg+2]` [MgSO4]: the “Relative Activity (%) of protease” value in series [3] (setting [13]) turned out to be 135.87%.
`[Cl][Mn][Cl]` [MnCl2]: the “Relative Activity (%) of protease” value in series [3] (setting [13]) is listed as 104.49%.
On to `O=S(=O)([O-])[O-].[Mn+2]` [MnSO4], for which the “Relative Activity (%) of protease” value in series [3] (setting [13]) turned out to be 108.39%.
With `[Cl-].[Na+]` [NaCl], the “Residual Activity (%) of protease at 50° C.” value is 100.00% in series [4] (setting [7]); 77.79% in series [4] (setting [8]); 54.11% in series [4] (setting [9]); 49.26% in series [4] (setting [10]); 48.83% in series [4] (setting [11]); 37.44% in series [4] (setting [12]).
As for `[Cl][Ni][Cl]` [NiCl2], the “Relative Activity (%) of protease” value in series [3] (setting [13]) is 65.60%.
With `OC[C@H]1O[C@H](O[C@H]2O[C@H](CO)[C@@H](O)[C@H](O)[C@H]2O)[C@H](O)[C@@H](O)[C@@H]1O` [Trehalose, trehalose], the “residual activity of protease at 50° C.” value in series [6] (additive 20%, 0 h) is listed as 100.00; in series [6] (additive 20%, 1 h), 78.14; in series [6] (additive 20%, 2 h) it was 62.15; in series [6] (additive 20%, 3 h), 46.12; in series [6] (additive 20%, 4 h), 39.80; in series [6] (additive 40%, 0 h) it was 100.00. The “residual activity of protease at 50° C.” value was determined as 85.27 in series [6] (additive 40%, 1 h); 75.99 in series [6] (additive 40%, 2 h); 75.47 in series [6] (additive 40%, 3 h); 71.11 in series [6] (additive 40%, 4 h); 100.00 in series [6] (additive 50%, 0 h); 92.32 in series [6] (additive 50%, 1 h). Also, the “residual activity of protease at 50° C.” value is 89.98 in series [6] (additive 50%, 2 h); 85.89 in series [6] (additive 50%, 3 h); 81.89 in series [6] (additive 50%, 4 h); ~80 in series [6] (additive 50%, 4 h, listed as trehalose).
On to `[Cl-].[Cl-].[Zn+2]` [ZnCl2], for which the “Relative Activity (%) of protease” value in series [3] (setting [13]) is listed as 60.27%.
In the case of `O=S(=O)([O-])[O-].[Zn+2]` [ZnSO4], the “Relative Activity (%) of protease” value in series [3] (setting [13]) is recorded as 58.03%.
Regarding `OCC(O)CO` [glycerol], the “residual activity of protease at 50° C.” value in series [5] (20% sugar alcohol, 30 min) is given as 74.68; in series [5] (20% sugar alcohol, 60 min) it was 62.01; in series [5] (20% sugar alcohol, 90 min) it was 49.08; in series [5] (20% sugar alcohol, 120 min) it was 36.97; in series [5] (20% sugar alcohol, 180 min), 31.73; in series [5] (setting [14]), 100.
With `NCC(=O)O` [glycine], the “Residual Activity (%) of protease at 50° C.” value came out at 100.00% in series [4] (setting [7]); 74.85% in series [4] (setting [8]); 54.19% in series [4] (setting [9]); 43.16% in series [4] (setting [10]); 39.89% in series [4] (setting [11]); 31.62% in series [4] (setting [12]).
As to `OC[C@@H](O)[C@@H](O)[C@H](O)[C@@H](O)CO` [sorbitol], the “residual activity of protease at 50° C.” value is listed as 100.0 in series [6] (additive 20%, 0 h); 77.28 in series [6] (additive 20%, 1 h); 49.25 in series [6] (additive 20%, 2 h); 42.99 in series [6] (additive 20%, 3 h); 33.11 in series [6] (additive 20%, 4 h); 100.0 in series [6] (additive 40%, 0 h). For the same molecule, the “residual activity of protease at 50° C.” value is on record as 87.00 in series [6] (additive 40%, 1 h); 70.69 in series [6] (additive 40%, 2 h); 61.54 in series [6] (additive 40%, 3 h); 58.57 in series [6] (additive 40%, 4 h); 100.0 in series [6] (additive 50%, 0 h); 91.31 in series [6] (additive 50%, 1 h). Also, the “residual activity of protease at 50° C.” value was 88.44 in series [6] (additive 50%, 2 h); 79.44 in series [6] (additive 50%, 3 h); ~80 in series [6] (additive 50%, 4 h); 78.25 in series [6] (additive 50%, 4 h, listed as Sorbitol); 84.01 in series [5] (20% sugar alcohol, 30 min); 70.66 in series [5] (20% sugar alcohol, 60 min). Also, the “residual activity of protease at 50° C.” value in series [5] (20% sugar alcohol, 90 min) is 62.31; in series [5] (20% sugar alcohol, 120 min), 51.57; in series [5] (20% sugar alcohol, 180 min) it was 47 and 47.11; in series [5] (setting [14]), 100.
For `OC[C@@H](O)[C@H](O)[C@@H](O)CO` [xylitol], the “residual activity of protease at 50° C.” value in series [5] (20% sugar alcohol, 30 min) stood at 76.31; in series [5] (20% sugar alcohol, 60 min), 63.36; in series [5] (20% sugar alcohol, 90 min) it was 52.42; in series [5] (20% sugar alcohol, 120 min) it was 44.61; in series [5] (20% sugar alcohol, 180 min) it was 39.25; in series [5] (setting [14]), 100.
